Values after ≈ are worked out from the molar mass of the structure shown.

The subject of one series is Staphylococcus aureus. Briefly: Antibacterial activity against methicillin-resistant Staphylococcus aureus C463 by agar dilution method. Format: functional.
The subject of another series is Streptococcus pyogenes. Briefly: Antibacterial activity against Streptococcus pyogenes 308A by agar dilution method. The format is functional.
In a further series the test system is Streptococcus agalactiae. Briefly: Antibacterial activity against Streptococcus agalactiae ATCC 2901 by agar dilution method. The format is functional.
The subject of the next series is Staphylococcus. Briefly: Antibacterial activity against methicillin-resistant coagulase negative Staphylococcus by agar dilution method. The format is functional.
For the next series, the system named is Enterococcus faecium. Briefly: Antibacterial activity against vancomycin-resistant Enterococcus faecium C803 by agar dilution method. The format is functional.
The next series relates to Enterococcus faecalis. Briefly: Antibacterial activity against vancomycin-resistant Enterococcus faecalis C474 by agar dilution method. The format is functional.
A further series relates to Haemophilus influenzae. The series is described as follows: Antibacterial activity against betalactamase positive Haemophilus influenzae by agar dilution method. Format: functional.
Another series has as its system Streptococcus pneumoniae. Briefly: Antibacterial activity against penicillin-resistant Streptococcus pneumoniae C402 by agar dilution method. Format: functional.
The target in series [1] is Voltage-gated inwardly rectifying potassium channel KCNH2 (Homo sapiens, UniProt Q12809). Briefly: Inhibition of human hERG by automated patch clamp assay.
Voltage-gated inwardly rectifying potassium channel KCNH2, sequence (Q12809 whole entry): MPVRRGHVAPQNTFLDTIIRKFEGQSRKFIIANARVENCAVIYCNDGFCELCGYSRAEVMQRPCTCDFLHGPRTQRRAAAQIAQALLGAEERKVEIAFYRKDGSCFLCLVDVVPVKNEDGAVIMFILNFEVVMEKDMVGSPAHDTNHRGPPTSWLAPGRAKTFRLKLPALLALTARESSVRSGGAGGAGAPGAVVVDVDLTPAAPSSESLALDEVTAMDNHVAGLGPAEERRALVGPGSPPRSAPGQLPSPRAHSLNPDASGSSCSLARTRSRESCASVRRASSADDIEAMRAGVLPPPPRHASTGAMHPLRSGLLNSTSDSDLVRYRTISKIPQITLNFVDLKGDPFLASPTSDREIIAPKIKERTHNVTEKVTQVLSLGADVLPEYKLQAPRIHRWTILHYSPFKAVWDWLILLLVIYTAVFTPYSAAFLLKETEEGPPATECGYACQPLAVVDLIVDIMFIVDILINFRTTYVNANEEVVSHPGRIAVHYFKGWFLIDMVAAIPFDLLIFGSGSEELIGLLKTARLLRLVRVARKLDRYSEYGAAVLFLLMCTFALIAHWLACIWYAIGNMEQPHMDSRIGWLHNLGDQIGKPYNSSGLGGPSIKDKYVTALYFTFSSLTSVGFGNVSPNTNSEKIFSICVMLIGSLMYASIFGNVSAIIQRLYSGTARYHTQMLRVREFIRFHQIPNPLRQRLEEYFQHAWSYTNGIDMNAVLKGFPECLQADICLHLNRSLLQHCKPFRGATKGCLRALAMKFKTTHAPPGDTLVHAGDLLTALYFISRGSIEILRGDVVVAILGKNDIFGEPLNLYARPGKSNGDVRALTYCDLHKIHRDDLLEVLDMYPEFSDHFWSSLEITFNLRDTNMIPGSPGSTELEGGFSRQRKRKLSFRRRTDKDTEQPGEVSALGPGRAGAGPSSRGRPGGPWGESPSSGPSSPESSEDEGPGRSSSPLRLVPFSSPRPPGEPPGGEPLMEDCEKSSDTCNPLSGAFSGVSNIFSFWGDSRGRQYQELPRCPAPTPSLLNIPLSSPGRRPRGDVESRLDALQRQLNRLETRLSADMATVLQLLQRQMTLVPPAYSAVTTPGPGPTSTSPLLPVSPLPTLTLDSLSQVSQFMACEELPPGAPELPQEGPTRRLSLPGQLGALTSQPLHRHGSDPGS
For another series, the target named is T1, MAO-B (Homo sapiens, UniProt P27338).
T1 sequence (P27338 whole entry): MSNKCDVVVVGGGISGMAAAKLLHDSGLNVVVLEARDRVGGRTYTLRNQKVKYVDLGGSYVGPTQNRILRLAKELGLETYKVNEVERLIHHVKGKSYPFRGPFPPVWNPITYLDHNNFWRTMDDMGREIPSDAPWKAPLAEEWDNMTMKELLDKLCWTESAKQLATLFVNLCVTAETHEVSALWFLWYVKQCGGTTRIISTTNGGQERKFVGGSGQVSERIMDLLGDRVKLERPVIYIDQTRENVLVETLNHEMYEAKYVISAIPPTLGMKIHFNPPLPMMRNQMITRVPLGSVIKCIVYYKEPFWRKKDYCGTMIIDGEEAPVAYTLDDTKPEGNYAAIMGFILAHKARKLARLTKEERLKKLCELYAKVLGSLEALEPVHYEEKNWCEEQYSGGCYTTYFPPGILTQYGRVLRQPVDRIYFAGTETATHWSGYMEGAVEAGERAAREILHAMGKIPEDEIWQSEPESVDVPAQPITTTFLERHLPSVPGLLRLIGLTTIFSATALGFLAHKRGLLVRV
The series is described as follows: Inhibition of human MAO-B assessed as residual activity at 10 uM. The following applies: read-out: INH.

The next series deals with CYP3A4 (Homo sapiens, UniProt P08684). The series is described as follows: Inhibition of CYP3A4 (unknown origin) assessed as residual activity at 10 uM. Format: ADME. To be noted: read-out: INH.
CYP3A4, sequence (P08684 whole entry): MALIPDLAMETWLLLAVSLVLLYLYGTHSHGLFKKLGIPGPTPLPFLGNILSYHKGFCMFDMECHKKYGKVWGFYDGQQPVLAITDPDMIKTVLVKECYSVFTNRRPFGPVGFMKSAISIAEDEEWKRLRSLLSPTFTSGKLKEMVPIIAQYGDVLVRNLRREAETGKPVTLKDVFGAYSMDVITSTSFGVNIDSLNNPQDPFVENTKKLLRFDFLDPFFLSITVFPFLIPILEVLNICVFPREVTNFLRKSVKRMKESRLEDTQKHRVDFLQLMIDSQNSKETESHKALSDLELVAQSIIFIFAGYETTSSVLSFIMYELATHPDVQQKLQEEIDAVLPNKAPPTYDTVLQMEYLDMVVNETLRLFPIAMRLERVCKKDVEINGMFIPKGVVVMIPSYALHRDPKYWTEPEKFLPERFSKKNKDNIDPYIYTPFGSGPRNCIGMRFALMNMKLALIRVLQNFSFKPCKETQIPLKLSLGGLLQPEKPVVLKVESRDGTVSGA
The target in the next series is CYP2C9 (Homo sapiens, UniProt P11712). Briefly: Inhibition of CYP2C9 (unknown origin) assessed as residual activity at 10 uM. To be noted: read-out: INH. Format: ADME.
CYP2C9, sequence (P11712 whole entry): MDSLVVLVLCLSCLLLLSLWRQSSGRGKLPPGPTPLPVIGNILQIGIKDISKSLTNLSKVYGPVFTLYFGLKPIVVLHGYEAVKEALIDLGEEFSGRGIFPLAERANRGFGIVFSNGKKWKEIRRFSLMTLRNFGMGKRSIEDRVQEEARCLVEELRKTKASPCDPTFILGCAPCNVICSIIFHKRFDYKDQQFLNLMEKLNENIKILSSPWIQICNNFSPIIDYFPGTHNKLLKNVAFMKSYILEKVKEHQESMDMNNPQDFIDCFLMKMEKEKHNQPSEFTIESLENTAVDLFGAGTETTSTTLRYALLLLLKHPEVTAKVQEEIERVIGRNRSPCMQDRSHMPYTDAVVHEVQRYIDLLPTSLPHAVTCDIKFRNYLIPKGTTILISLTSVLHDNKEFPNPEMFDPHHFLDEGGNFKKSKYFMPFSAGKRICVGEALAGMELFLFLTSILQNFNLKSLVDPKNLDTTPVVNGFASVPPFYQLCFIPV
Another series deals with CYP2D6 (Homo sapiens, UniProt P10635). Briefly: Inhibition of CYP2D6 (unknown origin) assessed as residual activity at 10 uM. Format: ADME. The following applies: read-out: INH.
CYP2D6, sequence (P10635 whole entry): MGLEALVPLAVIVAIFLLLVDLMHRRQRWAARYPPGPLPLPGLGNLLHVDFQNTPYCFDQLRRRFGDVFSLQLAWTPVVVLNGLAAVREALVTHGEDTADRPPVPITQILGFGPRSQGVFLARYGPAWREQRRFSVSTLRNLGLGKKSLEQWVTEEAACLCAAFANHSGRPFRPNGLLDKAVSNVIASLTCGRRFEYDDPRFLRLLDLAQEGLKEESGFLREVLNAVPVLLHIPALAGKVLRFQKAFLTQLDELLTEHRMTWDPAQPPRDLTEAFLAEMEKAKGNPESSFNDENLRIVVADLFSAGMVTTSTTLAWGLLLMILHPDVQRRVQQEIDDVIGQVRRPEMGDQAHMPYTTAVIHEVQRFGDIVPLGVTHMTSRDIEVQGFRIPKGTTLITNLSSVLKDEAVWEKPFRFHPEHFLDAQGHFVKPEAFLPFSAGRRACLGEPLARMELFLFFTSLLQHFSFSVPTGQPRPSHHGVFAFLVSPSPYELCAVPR
A further series concerns the target T2, CYP1A2 (Homo sapiens, UniProt P05177).
T2 sequence (P05177 whole entry): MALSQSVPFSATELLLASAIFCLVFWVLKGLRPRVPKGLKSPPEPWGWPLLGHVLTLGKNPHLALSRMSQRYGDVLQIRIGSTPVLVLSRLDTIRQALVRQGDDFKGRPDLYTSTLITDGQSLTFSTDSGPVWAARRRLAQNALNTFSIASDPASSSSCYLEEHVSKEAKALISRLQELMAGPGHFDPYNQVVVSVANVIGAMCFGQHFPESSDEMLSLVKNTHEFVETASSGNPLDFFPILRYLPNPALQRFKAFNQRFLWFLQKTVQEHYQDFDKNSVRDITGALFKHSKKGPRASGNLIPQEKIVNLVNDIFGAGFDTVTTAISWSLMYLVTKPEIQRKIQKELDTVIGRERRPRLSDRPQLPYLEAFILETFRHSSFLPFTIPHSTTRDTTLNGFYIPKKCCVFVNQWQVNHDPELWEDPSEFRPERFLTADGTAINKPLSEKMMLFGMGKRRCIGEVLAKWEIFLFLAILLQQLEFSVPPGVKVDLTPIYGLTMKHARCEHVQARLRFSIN
Briefly: Inhibition of CYP1A2 (unknown origin) assessed as residual activity at 10 uM. The following applies: read-out: INH. The format is ADME.

The target in another series is T3, MAO-A (Homo sapiens, UniProt P21397).
T3 sequence (P21397 whole entry): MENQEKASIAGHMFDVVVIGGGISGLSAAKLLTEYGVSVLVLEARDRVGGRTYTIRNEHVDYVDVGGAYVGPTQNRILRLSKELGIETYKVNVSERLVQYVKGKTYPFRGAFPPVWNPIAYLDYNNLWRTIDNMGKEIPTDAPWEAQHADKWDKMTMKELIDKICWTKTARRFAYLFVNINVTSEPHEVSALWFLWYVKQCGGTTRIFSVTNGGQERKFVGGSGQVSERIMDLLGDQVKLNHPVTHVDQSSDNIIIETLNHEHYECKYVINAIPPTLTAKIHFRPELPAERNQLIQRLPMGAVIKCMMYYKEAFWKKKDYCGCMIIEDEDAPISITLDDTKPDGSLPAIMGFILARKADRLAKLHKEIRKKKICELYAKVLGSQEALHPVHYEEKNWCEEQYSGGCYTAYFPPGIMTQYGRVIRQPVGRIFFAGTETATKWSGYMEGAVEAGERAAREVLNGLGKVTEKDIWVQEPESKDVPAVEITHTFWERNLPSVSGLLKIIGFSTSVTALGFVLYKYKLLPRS
The series is described as follows: Inhibition of human MAO-A assessed as residual activity at 10 uM. The following applies: read-out: INH.

With `N#CCC1=CCN(c2ccc(N3C[C@H](Cn4ccnn4)OC3=O)cc2F)CC1`, the MIC against Staphylococcus aureus came out at 3.12 µg/mL (≈ 8.16 µM); against Streptococcus pyogenes it was 0.39 µg/mL (≈ 1.02 µM); with Streptococcus agalactiae, 1.56 µg/mL (≈ 4.08 µM); with Staphylococcus, 3.12 µg/mL (≈ 8.16 µM); with Enterococcus faecium it was 3.12 µg/mL (≈ 8.16 µM); with Enterococcus faecalis, 3.12 µg/mL (≈ 8.16 µM). Further, the MIC with Haemophilus influenzae is 1.56 µg/mL (≈ 4.08 µM); in the series on Streptococcus pneumoniae, 0.39 µg/mL (≈ 1.02 µM).

Take `N#CCC1=CCN(c2ccc(N3C[C@H](Cn4cc(F)nn4)OC3=O)cc2F)CC1`: the MIC in the series with Staphylococcus aureus is 100 µg/mL (≈ 250 µM); in the series with Streptococcus pyogenes it was 25 µg/mL (≈ 62.4 µM); in the series with Streptococcus agalactiae, 25 µg/mL (≈ 62.4 µM); in the series on Staphylococcus, 100 µg/mL (≈ 250 µM); in the series with Enterococcus faecium it was 100 µg/mL (≈ 250 µM); against Enterococcus faecalis it was 100 µg/mL (≈ 250 µM). Also, the MIC against Haemophilus influenzae turned out to be 12.5 µg/mL (≈ 31.2 µM); in the series on Streptococcus pneumoniae, 50 µg/mL (≈ 125 µM).

Regarding `CCOC(=O)CC1=CCN(c2ccc(N3C[C@H](Cn4ccnn4)OC3=O)cc2F)CC1`, the MIC against Staphylococcus aureus was 6.25 µg/mL (≈ 14.6 µM); in the series on Streptococcus pyogenes, 1.56 µg/mL (≈ 3.63 µM); in the series with Streptococcus agalactiae, 1.56 µg/mL (≈ 3.63 µM); against Staphylococcus, 6.25 µg/mL (≈ 14.6 µM); in the series with Enterococcus faecium, 6.25 µg/mL (≈ 14.6 µM); in the series with Enterococcus faecalis it was 6.25 µg/mL (≈ 14.6 µM). Besides, the MIC against Haemophilus influenzae came to 3.12 µg/mL (≈ 7.27 µM); with Streptococcus pneumoniae it was 1.56 µg/mL (≈ 3.63 µM).

Compound `N#CC=C1CCN(c2ccc(N3C[C@H](Cn4ccnn4)OC3=O)cc2F)CC1` yielded an IC50 in series [1] of 49.5 µM. In addition, the MIC against Staphylococcus aureus was 3.12 µg/mL (≈ 8.16 µM); against Streptococcus pyogenes, 0.39 µg/mL (≈ 1.02 µM); in the series with Streptococcus agalactiae it was 0.78 µg/mL (≈ 2.04 µM); in the series with Staphylococcus, 3.12 µg/mL (≈ 8.16 µM); in the series with Enterococcus faecium it was 1.56 µg/mL (≈ 4.08 µM); in the series with Enterococcus faecalis, 3.12 µg/mL (≈ 8.16 µM). In addition, the figures for the MIC with Haemophilus influenzae and in the series with Streptococcus pneumoniae were 0.78 µg/mL (≈ 2.04 µM) and 0.39 µg/mL (≈ 1.02 µM), respectively. Also, the activity at 10 µM at MAO-B stood at 111%; at CYP3A4, 32%; at CYP2C9, 88%; on CYP2D6, 80.9%; on CYP1A2, 55.2%; at MAO-A, 3.54%.

`N#CC=C1CCN(c2ccc(N3C[C@H](Cn4cc(F)nn4)OC3=O)cc2F)CC1`: the MIC is 50 µg/mL (≈ 125 µM) in the series with Staphylococcus aureus; 50 µg/mL (≈ 125 µM) in the series on Streptococcus pyogenes; 100 µg/mL (≈ 250 µM) in the series on Streptococcus agalactiae; 100 µg/mL (≈ 250 µM) with Staphylococcus; 50 µg/mL (≈ 125 µM) in the series on Enterococcus faecium; 50 µg/mL (≈ 125 µM) with Enterococcus faecalis. Also, the MIC with Haemophilus influenzae and in the series on Streptococcus pneumoniae was 6.25 µg/mL (≈ 15.6 µM) in each case. The activity at 10 µM on MAO-B stood at 19.5%; at CYP3A4, 23.6%; on CYP2C9, 66.6%; on CYP2D6 it was 117%; at CYP1A2 it was 91.8%; on MAO-A, 50.6%.

As to `CCOC(=O)C=C1CCN(c2ccc(N3C[C@H](Cn4ccnn4)OC3=O)cc2F)CC1`, the MIC is 25 µg/mL (≈ 58.2 µM) in the series with Staphylococcus aureus; 6.25 µg/mL (≈ 14.6 µM) against Streptococcus pyogenes; 12.5 µg/mL (≈ 29.1 µM) in the series with Streptococcus agalactiae; 25 µg/mL (≈ 58.2 µM) against Staphylococcus; 25 µg/mL (≈ 58.2 µM) against Enterococcus faecium; 25 µg/mL (≈ 58.2 µM) against Enterococcus faecalis. Besides, the MIC was determined as 12.5 µg/mL (≈ 29.1 µM) against Haemophilus influenzae and 6.25 µg/mL (≈ 14.6 µM) against Streptococcus pneumoniae.

`CC(C#N)=C1CCN(c2ccc(N3C[C@H](Cn4ccnn4)OC3=O)cc2F)CC1` yielded an IC50 in [1] of 213 µM. Besides, the MIC in the series with Staphylococcus aureus came to 1.56 µg/mL (≈ 3.94 µM); against Streptococcus pyogenes, 0.39 µg/mL (≈ 0.984 µM); against Streptococcus agalactiae, 0.19 µg/mL (≈ 0.479 µM); against Staphylococcus it was 1.56 µg/mL (≈ 3.94 µM); against Enterococcus faecium, 1.56 µg/mL (≈ 3.94 µM); with Enterococcus faecalis, 1.56 µg/mL (≈ 3.94 µM). Also, the MIC was determined as 0.39 µg/mL (≈ 0.984 µM) against Haemophilus influenzae and 0.19 µg/mL (≈ 0.479 µM) against Streptococcus pneumoniae. Besides, the activity at 10 µM on MAO-B is 74.8%; on CYP3A4, 7.45%; on CYP2C9, 61.5%; on CYP2D6, 65.1%; on CYP1A2 it was 45.7%; at MAO-A, 34.8%.

As to `CC(C#N)=C1CCN(c2ccc(N3C[C@H](Cn4cc(F)nn4)OC3=O)cc2F)CC1`, the IC50 in series [1] was determined as 21 µM. In addition, the MIC in the series with Staphylococcus aureus turned out to be 100 µg/mL (≈ 241 µM); against Streptococcus pyogenes, 6.25 µg/mL (≈ 15.1 µM); against Streptococcus agalactiae, 12.5 µg/mL (≈ 30.2 µM); against Staphylococcus it was 100 µg/mL (≈ 241 µM); in the series on Enterococcus faecium, 100 µg/mL (≈ 241 µM); against Enterococcus faecalis, 100 µg/mL (≈ 241 µM). Besides, the MIC with Haemophilus influenzae and in the series on Streptococcus pneumoniae was 6.25 µg/mL (≈ 15.1 µM) each time. Also, the activity at 10 µM amounted to 34.8% on MAO-B; 21.4% on CYP3A4; 64.8% at CYP2C9; 106% at CYP2D6; 92.8% at CYP1A2; 10.2% at MAO-A.

With `CC(=O)NC[C@H]1CN(c2ccc(N3CCC(=CC#N)CC3)c(F)c2)C(=O)O1`, the MIC with Staphylococcus aureus amounted to 3.12 µg/mL (≈ 8.38 µM); in the series with Streptococcus pyogenes, 0.78 µg/mL (≈ 2.09 µM); against Streptococcus agalactiae, 0.78 µg/mL (≈ 2.09 µM); in the series with Staphylococcus, 3.12 µg/mL (≈ 8.38 µM); in the series with Enterococcus faecium, 3.12 µg/mL (≈ 8.38 µM); against Enterococcus faecalis, 3.12 µg/mL (≈ 8.38 µM). For the same compound, the MIC amounted to 0.78 µg/mL (≈ 2.09 µM) with Haemophilus influenzae and 0.39 µg/mL (≈ 1.05 µM) with Streptococcus pneumoniae.

`CC(=O)NC[C@H]1CN(c2ccc(N3CCOCC3)c(F)c2)C(=O)O1` [LINEZOLID]: the MIC stood at 3.12 µg/mL (≈ 9.25 µM) with Staphylococcus aureus; 0.78 µg/mL (≈ 2.31 µM) against Streptococcus pyogenes; 1.56 µg/mL (≈ 4.62 µM) against Streptococcus agalactiae; 3.12 µg/mL (≈ 9.25 µM) against Staphylococcus; 1.56 µg/mL (≈ 4.62 µM) in the series with Enterococcus faecium; 3.12 µg/mL (≈ 9.25 µM) with Enterococcus faecalis. For the same compound, the MIC in the series on Haemophilus influenzae and with Streptococcus pneumoniae was 0.78 µg/mL (≈ 2.31 µM) each time. The activity at 10 µM on MAO-B came out at 31.4%; at MAO-A, 6.79%.

(Values after ChEMBL document CHEMBL2321764, “Synthesis and antibacterial activities of new piperidine substituted (5R)-[1,2,3]triazolylmethyl and (5R)-[(4-F-[1,2,3]triazolyl)methyl] oxazolidinones” (Bioorg Med Chem Lett, 2013).)
